Series [1] can be described thus: Dynamic vapor sorption (gravimetric moisture sorption analysis). Format: physicochemical. The settings on record: for hygroscopicity by moisture sorption analysis / moisture absorbed at 60% RH / moisture absorbed at 90% RH: 25° C.; for XRPD of the post moisture sorption sample: dried at 0% RH and 60° C. for 2 hours after sorption; for moisture absorbed at 60% RH / moisture absorbed at 90% RH: moisture sorption. As to the method:
Gravimetric moisture sorption experiments were carried out on all materials by first holding the sample at 40% RH and 25° C. until an equilibrium weight was reached or for a maximum of four hours. The sample was then subjected to an isothermal (25° C.) adsorption scan from 40 to 90% RH in steps of 10%. The sample was allowed to equilibrate to an asymptotic weight at each point for a maximum of four hours. Following adsorption, a desorption scan from 85 to 5% RH (at 25° C.) was run in steps of −10%, again allowing a maximum of four hours for equilibration to an asymptotic weight. An adsorption scan was then performed from 0% RH to 40% RH in steps of +10% RH. The sample was then dried for no less than two hours at 60° C. and the resulting solid analyzed by XRPD.
Compound (I), Form F, was further characterized by thermal analysis (DSC and TGA), Karl Fischer titration, and DVS. […] (FIG. 5). […] (FIG. 6). The weight loss observed on TGA corresponds to the melt on DSC. […] The material absorbed 2.0 wt % moisture at 60% RH and 2.4 wt % moisture at 90% RH (FIG. 7). […] Karl Fisher analysis of the sample indicates a moisture content of 0.6 wt %, which was performed when lab humidity was around 20% RH.
Compound (I), Shifted Form F, was further characterized by thermal analysis (DSC and TGA), Karl Fischer titration, and DVS. […] (FIG. 9). […] (FIG. 10). […] The material absorbs 2.4 wt % moisture at 60% RH and 2.9 wt % moisture at 90% RH (FIG. 11). […] The water content by KF is higher than the weight loss detected by TGA. It is possible that some moisture was slowly carried away by nitrogen stream and not reflected in the weight loss attributed to the thermal event. Characterization of shifted Form F was performed when lab humidity was between 50-60% RH.

Series [2] is described as follows: Drying study / ambient exposure, form followed by XRPD. Format: physicochemical. How it is done: To understand a change of Form F to shifted Form F, a drying study was conducted wherein a variable hydrate having shifted Form F was dried overnight under vacuum at 50° C. […] This study confirms that Form F absorbs moisture from the atmosphere and depending upon the relative humidity of the environment either remains Form F or converts to Shifted Form F.
XRPD patterns were collected with a PANalytical CubiX-Pro XRD diffractometer using an incident beam of Cu radiation produced using an Optix long, fine-focus source. An elliptically graded multilayer mirror was used to focus CuKα X-rays (1.54 Å) through the specimen and onto the detector. Prior to the analysis, a silicon specimen (NIST SRM 640d) was analyzed to verify the observed position of the Si 111 peak is consistent with the NIST-certified position. A specimen of the sample was sandwiched between 3-μm-thick films and analyzed in transmission geometry. A beam-stop, short antiscatter extension, and antiscatter knife edge were used to minimize the background generated by air. Soller slits for the incident and diffracted beams were used to minimize broadening from axial divergence. Diffraction patterns were collected using a scanning position-sensitive detector (X'Celerator) located 240 mm from the specimen and Data Collector software v. 2.2b. The tube power was set to 45 kV and 40 mA. […]

For `CCOC(C(=O)c1ccc(-c2cc(OC)c(Cl)c(OC)c2)o1)c1ccc(-c2nnc(C)s2)cc1` (stereo not shown) [Form F, 1-(5-(4-chloro-3,5-dimethoxyphenyl)furan-2-yl)-2-ethoxy-2-(4-(5-methyl-1,3,4-thiadiazol-2-yl)phenyl)ethanone], in series [1], the “hygroscopicity by moisture sorption analysis” value is recorded as “moderately hygroscopic”, the “XRPD of the post moisture sorption sample” value is on record as “consistent with Form F”, the “moisture absorbed at 60% RH” value was 2.0 wt % and the “moisture absorbed at 90% RH” value turned out to be 2.4 wt %. Besides, the “form after exposure to ambient conditions” value in series [2] (dried material exposed to ambient conditions for 5 days) is given as “converted back to shifted Form F”.

Regarding `CCOC(C(=O)c1ccc(-c2cc(OC)c(Cl)c(OC)c2)o1)c1ccc(-c2nnc(C)s2)cc1` (stereo not shown) [shifted Form F, 1-(5-(4-chloro-3,5-dimethoxyphenyl)furan-2-yl)-2-ethoxy-2-(4-(5-methyl-1,3,4-thiadiazol-2-yl)phenyl)ethanone], in series [1], the “hygroscopicity by moisture sorption analysis” value is given as “moderately hygroscopic”, the “XRPD of the post moisture sorption sample” value is “consistent with shifted Form F”, the “moisture absorbed at 60% RH” value was determined as 2.4 wt % and the “moisture absorbed at 90% RH” value is on record as 2.9 wt %. For the same molecule, in series [2] (dried overnight under vacuum at 50° C.), the “XRPD of the dried solid” value is given as “consistent with Form F”.

For the origin of these results see patent publication US9920045B2, “Solid state forms of a PDE10 inhibitor” (Omeros Corporation, priority 2015, dated 2018).
